We go through 6 molecules from US6310247A, “7-aryl-6(Z)-heptatrienoic acid retinamides” (Hoffmann-LA Roche Inc., priority 1999, dated 2001).

Where two headings read alike, the source gives them in different places.

Assay type in all cases: cell-based
One assay has as its system MDA 231 cells. Put plainly: Cell growth inhibition: MTT assay, MDA 231 (ER- breast carcinoma). Particulars: Homo sapiens, MDA-MB-231, read-out: % inhibition of cell growth compared to no drug control. How it is done:
ER- breast carcinoma, human (MDA-231) obtained from ATCC (HTB 22), were grown in Eagle's MEM medium supplemented with non-essential amino acids, sodium pyruvate, and Earle's BSS, 10% FBS, and 13 ng/mL gentamicin. Cells were incubated at 37° C., 4.5% CO2 and 95.5% humidified air.
(§1) 1. Cell growth inhibition: MTT Assay
(§2) The compounds of formula 1 were tested for ability to inhibit cell growth using the standard MTT assay, a tetrazolium-based assay which measures the viability of cells in culture. Cells were harvested upon reaching 70-80% confluency and pelleted. The cells were then resuspended in medium in which FBS was replaced with Hyclone's Charcoal/Dextran stripped FBS, and seeded (2 mL/well) into 6-well plates (Corning) at a density allowing for linear growth over a four day assay period. Compounds of formula 1 (10 mM stock in dimethylsulfoxide (DMSO)) were added 18-24 hours post-seeding. Compound dilutions were prepared in the appropriate growth media and added to the cells for final concentrations of 10, 3.3 and 1 μM in 0.1% DMSO. At 24, 48 and 72 hr. time points, MTT (3-[4,5-dimethylthiazol-2-yl-2,5-diphenyltetrazolium bromide) stock solution (5mg/mL in 1 PBS) was added to the cells plates (625 μL/well) which were then incubated for 2.5 hours. Liquid was aspirated from the wells and 1 mL/well of 95% ethanol was added to solubilize the formazan reaction product. The plates were shaken (Bellco Mini-Orbital Shaker) for 15 minutes. The solubilized formazan was then transferred (50 μls) into a 96-well plate and the optical densities (OD) were measured (Bio-Tek Microplate Reader) at 570 nm and reference wavelength of 660 nm. Percentage of inhibition of cell growth was calculated according to the following formula: [formula]

A further assay relates to MDA 435 cells. The assay is described as follows: Cell growth inhibition: MTT assay, MDA 435 (ER- breast carcinoma). Particulars: Homo sapiens, MDA435, read-out: % inhibition of cell growth compared to no drug control. The method, then: ER- breast carcinoma, human (MDA-435) obtained from Dr. Janet Price, MDA Cancer Center, Houston, Tex., were grown in Gibco's RPMI 1640 media supplemented with sodium pyruvate, 10% FBS and 13 ng/mL gentamicin. Cells were incubated at 37° C., 4.5% CO2 and 95.5% humidified air.
as §1, §2

In another assay the test system is ZR-75-1 cells. The assay is described as follows: Cell growth inhibition: MTT assay, ZR-75-1 (ER+ breast carcinoma). Particulars: Homo sapiens, read-out: % inhibition of cell growth compared to no drug control. How it is done: ER+ breast carcinoma, human (ZR-75-1) obtained from ATCC (CRL 1500), were grown in Gibco's RPMI 1640 media supplemented with sodium pyruvate, 10% FBS and 13 ng/mL gentamicin. Cells were incubated at 37° C., 4.5% CO2 and 95.5% humidified air.
as §1, §2

Take `CC(/C=C/C(C)=C/C(=O)Nc1ccc(O)cc1)=C(\C)c1cc(C(F)(F)F)cc(C(F)(F)F)c1` [N-(4-hydroxyphenyl)-(2E,4E,6Z)-7-[3,5-bis(trifluoromethyl)phenyl]-3,6,7-trimethyl-2,4,6-heptatrienamide]: the inhibition at 1 µM in the assay on MDA 231 cells (24 hours) is 0%; in the assay on MDA 231 cells (48 hours) it was 0%; with MDA 231 cells (72 hours), 38%; with MDA 435 cells (24 hours), 3%; in the assay with MDA 435 cells (48 hours), 3%; with MDA 435 cells (72 hours), 4%. The inhibition at 1 µM in the assay on ZR-75-1 cells (48 hours) is 3%; in the assay on ZR-75-1 cells (72 hours), 16%. Moreover, the inhibition at 3.3 µM in the assay on MDA 231 cells (24 hours) turned out to be 0%; with MDA 231 cells (48 hours) it was 0%; in the assay with MDA 231 cells (72 hours) it was 48%; in the assay on MDA 435 cells (24 hours) it was 67%; in the assay with MDA 435 cells (48 hours), 95%; in the assay with MDA 435 cells (72 hours), 98%. Further, the inhibition at 3.3 µM with ZR-75-1 cells (48 hours) worked out at 0%; in the assay on ZR-75-1 cells (72 hours) it was 10%. Besides, the inhibition at 10 µM in the assay with MDA 231 cells (24 hours) was 40%; in the assay on MDA 231 cells (48 hours) it was 57%; in the assay on MDA 231 cells (72 hours), 76%; in the assay on MDA 435 cells (24 hours), 68%; in the assay on MDA 435 cells (48 hours), 96%; in the assay with MDA 435 cells (72 hours) it was 99%. In addition, the figures for the inhibition at 10 µM in the assay on ZR-75-1 cells (48 hours) and with ZR-75-1 cells (72 hours) were 60% and 80%, respectively.

For the molecule `C/C(=C/C=C/C(C)=C/C(=O)Nc1ccc(O)cc1)c1cc(C)cc(C)c1` [N-(4-hydroxyphenyl)-(2E,4E,6Z)-7-(3,5-dimethylphenyl)-3,7-dimethyl-2,4,6-heptatrienamide], the inhibition at 1 µM with MDA 231 cells (24 hours) was found to be 50%; in the assay on MDA 231 cells (48 hours) it was 60%; in the assay on MDA 231 cells (72 hours) it was 81%; in the assay on MDA 435 cells (24 hours), 56%; in the assay on MDA 435 cells (48 hours), 95%; in the assay with MDA 435 cells (72 hours), 95%. In addition, the inhibition at 3.3 µM was found to be 51% with MDA 231 cells (24 hours); 70% in the assay with MDA 231 cells (48 hours); 82% in the assay on MDA 231 cells (72 hours); 53% in the assay on MDA 435 cells (24 hours); 92% with MDA 435 cells (48 hours); 94% with MDA 435 cells (72 hours). Also, the inhibition at 10 µM is 58% in the assay with MDA 231 cells (24 hours); 72% in the assay on MDA 231 cells (48 hours); 85% in the assay on MDA 231 cells (72 hours); 53% in the assay on MDA 435 cells (24 hours); 98% in the assay on MDA 435 cells (48 hours); 91% with MDA 435 cells (72 hours).

Regarding `COc1cc(OC)cc(\C(C)=C/C=C/C(C)=C/C(=O)Nc2ccc(O)cc2)c1` [N-(4-hydroxyphenyl)-(2E,4E,6Z)-7-(3,5-dimethoxyphenyl)-3,7-dimethyl-2,4,6-heptatrienamide], the inhibition at 1 µM in the assay on MDA 231 cells (24 hours) came to 18%; in the assay with MDA 231 cells (48 hours) it was 30%; in the assay on MDA 231 cells (72 hours), 25%; in the assay on MDA 435 cells (24 hours) it was 21%; in the assay with MDA 435 cells (48 hours), 64%; in the assay on MDA 435 cells (72 hours) it was 86%. In addition, the inhibition at 3.3 µM with MDA 231 cells (24 hours) turned out to be 21%; in the assay with MDA 231 cells (48 hours), 52%; in the assay on MDA 231 cells (72 hours), 61%; in the assay with MDA 435 cells (24 hours), 36%; in the assay on MDA 435 cells (48 hours) it was 61%; in the assay with MDA 435 cells (72 hours), 87%. In addition, the inhibition at 10 µM in the assay with MDA 231 cells (24 hours) was 30%; in the assay on MDA 231 cells (48 hours) it was 65%; in the assay on MDA 231 cells (72 hours) it was 64%; with MDA 435 cells (24 hours) it was 25%; in the assay with MDA 435 cells (48 hours), 61%; in the assay on MDA 435 cells (72 hours) it was 87%.

On to `C/C(=C/C=C/C(C)=C/C(=O)Nc1ccc(O)cc1)c1ccccc1` [N-(4-hydroxyphenyl)-(2E,4E,6Z)-7-phenyl-3,7-dimethyl-2,4,6-heptatrienamide], for which the inhibition at 1 µM in the assay on MDA 231 cells (24 hours) was found to be 45%; with MDA 231 cells (48 hours), 67%; in the assay with MDA 231 cells (72 hours), 76%; in the assay on MDA 435 cells (24 hours), 3%; in the assay with MDA 435 cells (48 hours) it was 39%; in the assay with MDA 435 cells (72 hours) it was 41%. Besides, the inhibition at 3.3 µM is 57% in the assay with MDA 231 cells (24 hours); 80% with MDA 231 cells (48 hours); 87% with MDA 231 cells (72 hours); 3% with MDA 435 cells (24 hours); 40% with MDA 435 cells (48 hours); 51% in the assay on MDA 435 cells (72 hours). The inhibition at 10 µM in the assay on MDA 231 cells (24 hours) was 58%; in the assay with MDA 231 cells (48 hours), 81%; with MDA 231 cells (72 hours), 88%; with MDA 435 cells (24 hours) it was 2%; in the assay with MDA 435 cells (48 hours) it was 42%; with MDA 435 cells (72 hours), 68%.

Turning to `C/C(=C/C=C/C(C)=C/C(=O)Nc1ccc(O)cc1)c1cc(Br)cc(Br)c1` [N-(4-hydroxyphenyl)-(2E,4E,6Z)-7-(3,5-dibromophenyl)-3,7-dimethyl-2,4,6-heptatrienamide], the inhibition at 1 µM was 6% in the assay on MDA 231 cells (24 hours); 72% with MDA 231 cells (48 hours); 78% in the assay with MDA 231 cells (72 hours); 27% in the assay with MDA 435 cells (24 hours); 70% in the assay with MDA 435 cells (48 hours); 86% with MDA 435 cells (72 hours). The inhibition at 3.3 µM amounted to 65% in the assay on MDA 231 cells (24 hours); 81% with MDA 231 cells (48 hours); 86% in the assay with MDA 231 cells (72 hours); 28% in the assay with MDA 435 cells (24 hours); 66% in the assay with MDA 435 cells (48 hours); 88% in the assay on MDA 435 cells (72 hours). The inhibition at 10 µM with MDA 231 cells (24 hours) came out at 65%; in the assay with MDA 231 cells (48 hours), 82%; with MDA 231 cells (72 hours) it was 87%; with MDA 435 cells (24 hours) it was 37%; with MDA 435 cells (48 hours) it was 70%; in the assay on MDA 435 cells (72 hours), 87%.

For `CC(/C=C/C=C\c1cc(C(F)(F)F)cc(C(F)(F)F)c1)=C\C(=O)Nc1ccc(O)cc1` [N-(4-hydroxyphenyl)-(2E,4E,6Z)-7-[3,5-bis(trifluoromethyl)phenyl]-3-methyl-2,4,6-heptatrienamide], the inhibition at 1 µM in the assay with MDA 231 cells (24 hours) is 22%; in the assay with MDA 231 cells (48 hours), 42%; in the assay with MDA 231 cells (72 hours) it was 50%; with MDA 435 cells (24 hours), 19%; with MDA 435 cells (48 hours), 45%; with MDA 435 cells (72 hours) it was 73%. The inhibition at 3.3 µM was 33% with MDA 231 cells (24 hours); 51% in the assay on MDA 231 cells (48 hours); 68% with MDA 231 cells (72 hours); 81% in the assay with MDA 435 cells (24 hours); 93% in the assay on MDA 435 cells (48 hours); 83% with MDA 435 cells (72 hours). Moreover, the inhibition at 10 µM was found to be 37% in the assay with MDA 231 cells (24 hours); 50% in the assay with MDA 231 cells (48 hours); 73% with MDA 231 cells (72 hours); 91% with MDA 435 cells (24 hours); 99% in the assay with MDA 435 cells (48 hours); 100% in the assay on MDA 435 cells (72 hours).
